Assay results: ChEMBL document CHEMBL4616727, “Characterization of Conformationally Constrained Benzanilide Scaffolds for Potent and Selective HDAC8 Targeting” (J Med Chem, 2020)

How the values were obtained:
[1] = Effective permeability at pH 7.4 by PAMPA method; type: ADME
[2] = Effective permeability assessed as drug recovery at pH 7.4 by PAMPA method; type: ADME; settings: read-out: Drug recovery
BE(2)-C = assay: Inhibition of colony formation in human BE(2)-C cells
[3] = MRT in CD1 mouse at 100 mg/kg, ip measured after 5 mins to 12 hrs by LC-MS/MS analysis; type: ADME, organism-based; settings: in vivo
[4] = Half life in CD1 mouse at 100 mg/kg, ip measured after 5 mins to 12 hrs by LC-MS/MS analysis; type: ADME, organism-based; settings: in vivo
[5] = Cmax in CD1 mouse at 100 mg/kg, ip measured after 5 mins to 12 hrs by LC-MS/MS analysis; type: ADME, organism-based; set-up: dose 100 mg/kg, route intraperitoneal; settings: in vivo
[6] = AUClast in CD1 mouse at 100 mg/kg, ip measured after 5 mins to 12 hrs by LC-MS/MS analysis; type: ADME, organism-based; set-up: time upper 12 hr, time lower 0.083 hr, dose 100 mg/kg, route intraperitoneal; settings: in vivo
Histone deacetylase 4 = Histone deacetylase 4 (Homo sapiens, UniProt P56524); assay: Inhibition of C-terminal GST-tagged human HDAC4 (101 to 1084 resides) expressed in baculovirus expression system using FAM-RHKK(TF-Ac)-NH2 substrate incubated for […] by EMSA method
Histone deacetylase 5 = Histone deacetylase 5 (Homo sapiens, UniProt Q9UQL6); assay: Inhibition of N-terminal GST-tagged full length human HDAC5 expressed in baculovirus expression system using FAM-RHKK(TF-Ac)-NH2 substrate incubated for 2 hrs by EMSA method
Histone deacetylase 7 = target: T1, Histone deacetylase 7 (Homo sapiens, UniProt Q8WUI4); assay: Inhibition of N-terminal GST-tagged human HDAC7 (518 to end residues) expressed in baculovirus expression system using FAM-RHKK(TF-Ac)-NH2 substrate incubated for 3 hrs by EMSA method
T1 sequence (Q8WUI4 whole entry): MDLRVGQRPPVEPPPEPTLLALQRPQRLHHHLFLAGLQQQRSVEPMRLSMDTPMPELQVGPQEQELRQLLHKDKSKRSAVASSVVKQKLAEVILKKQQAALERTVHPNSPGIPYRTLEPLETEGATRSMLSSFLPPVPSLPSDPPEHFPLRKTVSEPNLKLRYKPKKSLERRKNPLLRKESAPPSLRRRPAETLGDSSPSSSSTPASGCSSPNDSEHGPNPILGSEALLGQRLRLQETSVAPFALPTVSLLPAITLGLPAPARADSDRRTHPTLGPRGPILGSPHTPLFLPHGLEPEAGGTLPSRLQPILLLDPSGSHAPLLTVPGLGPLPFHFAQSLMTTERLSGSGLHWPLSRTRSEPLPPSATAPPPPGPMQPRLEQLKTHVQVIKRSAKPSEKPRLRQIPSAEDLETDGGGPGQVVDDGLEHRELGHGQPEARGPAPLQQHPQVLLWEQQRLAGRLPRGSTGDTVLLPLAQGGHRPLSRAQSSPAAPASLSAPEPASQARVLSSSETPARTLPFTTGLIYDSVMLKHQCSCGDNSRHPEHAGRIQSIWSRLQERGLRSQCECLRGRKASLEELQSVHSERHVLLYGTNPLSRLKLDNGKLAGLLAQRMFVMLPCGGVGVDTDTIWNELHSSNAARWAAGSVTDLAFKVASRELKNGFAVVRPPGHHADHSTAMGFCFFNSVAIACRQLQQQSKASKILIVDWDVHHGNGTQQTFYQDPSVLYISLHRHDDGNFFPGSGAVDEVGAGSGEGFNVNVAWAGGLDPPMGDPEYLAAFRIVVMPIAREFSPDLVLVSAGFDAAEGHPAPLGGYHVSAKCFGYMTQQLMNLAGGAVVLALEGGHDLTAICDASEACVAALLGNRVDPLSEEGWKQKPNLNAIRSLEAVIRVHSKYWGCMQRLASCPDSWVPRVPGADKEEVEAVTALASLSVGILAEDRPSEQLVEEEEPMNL

[7] = target: T2, Polyamine deacetylase HDAC10 (Homo sapiens, UniProt Q969S8); assay: Inhibition of N-terminal His-tagged full length human HDAC10 expressed in baculovirus expression system using FAM-TSRHK(Ac)KL-NH2 substrate incubated for 17 hrs by EMSA method
T2 sequence (Q969S8 whole entry): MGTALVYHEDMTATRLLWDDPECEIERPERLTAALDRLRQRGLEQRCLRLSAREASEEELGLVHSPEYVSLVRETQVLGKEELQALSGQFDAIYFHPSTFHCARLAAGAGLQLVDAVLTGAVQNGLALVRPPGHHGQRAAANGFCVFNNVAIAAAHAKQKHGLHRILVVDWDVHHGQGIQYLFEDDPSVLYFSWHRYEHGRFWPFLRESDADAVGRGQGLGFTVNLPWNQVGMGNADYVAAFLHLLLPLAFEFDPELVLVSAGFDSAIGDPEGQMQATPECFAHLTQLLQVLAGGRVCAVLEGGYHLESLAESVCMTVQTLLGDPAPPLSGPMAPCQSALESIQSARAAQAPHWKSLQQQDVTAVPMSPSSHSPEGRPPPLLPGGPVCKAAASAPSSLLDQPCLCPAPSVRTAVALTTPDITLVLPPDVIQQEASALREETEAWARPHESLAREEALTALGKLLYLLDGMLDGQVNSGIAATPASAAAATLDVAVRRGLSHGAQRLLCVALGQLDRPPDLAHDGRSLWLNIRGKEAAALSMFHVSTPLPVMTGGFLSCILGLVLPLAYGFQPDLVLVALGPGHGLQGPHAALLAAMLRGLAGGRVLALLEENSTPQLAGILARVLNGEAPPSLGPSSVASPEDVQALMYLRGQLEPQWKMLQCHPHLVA

Histone deacetylase 9 = Histone deacetylase 9 (Homo sapiens, UniProt Q9UKV0); assay: Inhibition of C-terminal His-tagged human HDAC9 (604 to 1066residues) expressed in baculovirus expression system using […] substrate incubated for 3 hrs by EMSA method
Sequence of Histone deacetylase 9 (Q9UKV0 whole entry): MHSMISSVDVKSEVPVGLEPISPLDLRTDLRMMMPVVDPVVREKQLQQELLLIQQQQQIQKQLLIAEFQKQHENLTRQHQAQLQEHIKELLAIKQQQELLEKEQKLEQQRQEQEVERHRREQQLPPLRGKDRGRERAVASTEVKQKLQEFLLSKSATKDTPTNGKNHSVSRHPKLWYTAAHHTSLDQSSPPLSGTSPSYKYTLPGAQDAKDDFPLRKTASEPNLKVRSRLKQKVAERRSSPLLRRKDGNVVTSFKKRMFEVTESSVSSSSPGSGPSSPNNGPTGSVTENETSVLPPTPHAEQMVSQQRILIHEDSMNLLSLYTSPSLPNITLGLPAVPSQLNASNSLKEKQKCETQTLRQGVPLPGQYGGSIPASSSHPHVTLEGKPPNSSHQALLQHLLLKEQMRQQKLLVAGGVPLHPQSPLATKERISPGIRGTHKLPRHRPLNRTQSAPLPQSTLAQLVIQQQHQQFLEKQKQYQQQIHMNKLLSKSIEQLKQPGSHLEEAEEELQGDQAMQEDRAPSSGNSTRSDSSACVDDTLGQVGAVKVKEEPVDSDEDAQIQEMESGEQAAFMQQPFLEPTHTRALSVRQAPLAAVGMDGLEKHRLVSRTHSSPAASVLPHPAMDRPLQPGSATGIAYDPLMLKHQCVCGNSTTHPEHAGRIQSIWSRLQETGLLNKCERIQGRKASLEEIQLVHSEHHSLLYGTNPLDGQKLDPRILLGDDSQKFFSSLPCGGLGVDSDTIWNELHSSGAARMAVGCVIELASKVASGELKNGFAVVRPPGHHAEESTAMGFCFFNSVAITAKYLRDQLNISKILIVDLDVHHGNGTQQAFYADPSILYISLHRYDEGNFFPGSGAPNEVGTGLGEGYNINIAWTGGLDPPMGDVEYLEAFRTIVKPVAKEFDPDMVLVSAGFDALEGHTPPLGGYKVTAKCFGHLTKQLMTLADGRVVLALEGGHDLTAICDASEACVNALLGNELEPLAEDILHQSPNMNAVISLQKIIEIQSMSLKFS

Sequence of Histone deacetylase 4 (P56524 whole entry): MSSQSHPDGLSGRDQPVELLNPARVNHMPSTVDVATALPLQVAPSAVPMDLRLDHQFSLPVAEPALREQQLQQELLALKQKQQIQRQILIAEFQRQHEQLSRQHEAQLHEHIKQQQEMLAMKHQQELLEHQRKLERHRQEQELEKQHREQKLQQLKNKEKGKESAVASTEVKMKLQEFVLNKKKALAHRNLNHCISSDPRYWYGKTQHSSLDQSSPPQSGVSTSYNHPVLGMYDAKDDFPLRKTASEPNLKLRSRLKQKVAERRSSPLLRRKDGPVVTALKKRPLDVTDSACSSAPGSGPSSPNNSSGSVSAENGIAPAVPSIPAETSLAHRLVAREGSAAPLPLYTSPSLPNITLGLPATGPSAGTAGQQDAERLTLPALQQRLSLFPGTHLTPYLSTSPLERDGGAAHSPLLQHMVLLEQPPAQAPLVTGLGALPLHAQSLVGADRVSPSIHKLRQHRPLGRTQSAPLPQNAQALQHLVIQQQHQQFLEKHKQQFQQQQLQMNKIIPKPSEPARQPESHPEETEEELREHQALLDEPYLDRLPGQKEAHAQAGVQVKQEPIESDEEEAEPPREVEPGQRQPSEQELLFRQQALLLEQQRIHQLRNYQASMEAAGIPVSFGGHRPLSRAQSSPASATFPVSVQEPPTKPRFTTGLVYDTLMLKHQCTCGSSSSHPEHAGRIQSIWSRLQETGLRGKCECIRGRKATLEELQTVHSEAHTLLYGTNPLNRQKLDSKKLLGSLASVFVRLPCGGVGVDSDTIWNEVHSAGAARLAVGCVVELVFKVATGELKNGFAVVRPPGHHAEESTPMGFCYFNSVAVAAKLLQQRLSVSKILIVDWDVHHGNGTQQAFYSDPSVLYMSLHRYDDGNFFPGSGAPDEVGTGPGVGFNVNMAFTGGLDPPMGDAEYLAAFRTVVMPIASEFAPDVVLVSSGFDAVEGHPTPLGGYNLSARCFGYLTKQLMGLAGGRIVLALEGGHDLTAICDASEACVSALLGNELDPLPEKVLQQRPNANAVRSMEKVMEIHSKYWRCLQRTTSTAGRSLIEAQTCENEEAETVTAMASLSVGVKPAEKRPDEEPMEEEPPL
Sequence of Histone deacetylase 5 (Q9UQL6 whole entry): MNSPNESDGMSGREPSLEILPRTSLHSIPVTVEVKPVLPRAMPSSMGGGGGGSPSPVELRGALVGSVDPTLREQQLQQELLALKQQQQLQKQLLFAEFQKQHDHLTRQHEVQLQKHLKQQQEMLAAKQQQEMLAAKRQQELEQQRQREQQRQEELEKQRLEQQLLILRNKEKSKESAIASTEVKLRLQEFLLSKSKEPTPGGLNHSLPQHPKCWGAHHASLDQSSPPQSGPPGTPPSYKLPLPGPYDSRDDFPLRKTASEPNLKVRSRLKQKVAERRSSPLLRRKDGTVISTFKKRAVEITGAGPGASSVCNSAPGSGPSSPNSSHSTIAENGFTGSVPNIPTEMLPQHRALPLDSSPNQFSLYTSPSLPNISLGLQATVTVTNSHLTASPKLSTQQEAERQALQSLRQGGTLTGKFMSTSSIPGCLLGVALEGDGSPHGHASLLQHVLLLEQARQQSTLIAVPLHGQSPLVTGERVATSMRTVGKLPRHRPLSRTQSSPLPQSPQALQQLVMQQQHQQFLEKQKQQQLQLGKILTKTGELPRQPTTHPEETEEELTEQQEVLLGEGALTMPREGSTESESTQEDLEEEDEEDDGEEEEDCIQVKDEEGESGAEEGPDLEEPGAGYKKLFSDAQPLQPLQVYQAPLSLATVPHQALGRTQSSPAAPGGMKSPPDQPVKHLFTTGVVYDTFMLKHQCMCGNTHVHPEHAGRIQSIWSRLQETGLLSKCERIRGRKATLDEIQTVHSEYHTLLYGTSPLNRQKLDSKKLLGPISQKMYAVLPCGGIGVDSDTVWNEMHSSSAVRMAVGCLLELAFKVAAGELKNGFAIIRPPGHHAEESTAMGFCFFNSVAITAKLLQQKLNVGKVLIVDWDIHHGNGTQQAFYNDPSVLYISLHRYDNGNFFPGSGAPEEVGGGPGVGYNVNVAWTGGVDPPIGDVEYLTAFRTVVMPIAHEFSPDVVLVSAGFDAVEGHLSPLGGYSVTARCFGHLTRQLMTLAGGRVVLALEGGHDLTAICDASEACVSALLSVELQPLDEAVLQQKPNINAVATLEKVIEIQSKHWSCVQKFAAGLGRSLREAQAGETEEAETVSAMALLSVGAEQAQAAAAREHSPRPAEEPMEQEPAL

Row | Compound | log(permeability) [1] | recovery [2] | IC50 (BE(2)-C) | MRT [3] | half-life [4] | Cmax [5] | AUC(0-t) [6] | IC50 (Histone deacetylase 4) | IC50 (Histone deacetylase 5) | IC50 (Histone deacetylase 7) | IC50 [7] | IC50 (Histone deacetylase 9)
1 | CC(C)(C)c1cccc(C(=O)N(CC2CC2)c2ccc(C(=O)NO)cc2)c1 | -5.7 | 102% | 2.1 µM | 2.77 h | – | – | – | – | – | – | – | –
2 | COc1ccc(Cn2ccc3ccc(C(=O)NO)cc32)cc1 | – | – | – | 0.45 h | 3.3 h | 57.6 µM | 6950 ng·h/mL | – | – | – | – | –
3 | CC(C)N(C(=O)c1cc(C(F)(F)F)cc(C(F)(F)F)c1)c1ccc(C(=O)NO)cc1 | -5.42 | 95.4% | – | – | – | – | – | > 10 µM | > 10 µM | > 10 µM | > 10 µM | > 10 µM
4 | CC(C)N(C(=O)c1cccc(OC(F)(F)F)c1)c1ccc(C(=O)NO)cc1 | -5.8 | 102% | – | 3 h | – | – | – | – | – | – | – | –
